{
  "source": "patent US11918553B2",
  "about": "“Anti-oncogenic phytochemicals comprising substituted henicosanoic acid and henicosenoic acid” (Ostentus Therapeutics, Inc., priority 2022, dated 2024)",
  "assay_in_all_cases": "Apoptosis flow cytometry assay of HPLC fractions and synthesized compounds",
  "key": {"MV-4-11 cells": {"test_system": "MV-4-11 cells", "assay_type": "cell-based, human", "description": "Apoptosis flow cytometry assays were performed essentially as described in Example 3. In one series of experiments, cultures MV-4-11 cells were grown to an appropriate density and approximately 20,000 cells/100 μL were seeded into wells of 96-well cell culture microplate. For each fraction, either 0.5 μL/mL of a fraction or 1 μL/mL of a fraction was then added to transferred cells for each cell line and incubated for 24 hours at 37° C. in 5% CO2 incubator. […] Cells were then assessed for apoptosis by an apoptosis flow cytometry assay employing with a fluorochrome-conjugated Annexin V and/or the fluorescent nucleic acid dye 4,6-diamidino-2-phenylindole (DAPI) (APC Annexin V, BD Bioscience, CA) following protocols provided by the manufacture. […] Aliquots were then incubated in the dark for 15 minutes with either 1) an Annexin-V-APC conjugate and DAPI, 1) an Annexin-V-APC conjugate; or 3) DAPI. An unstained aliquot was also set up as a negative control to define the basal level of apoptotic and dead cells. The percentage of cells that have been induced to undergo apoptosis is then determined by subtracting the percentage of apoptotic cells in the unstained aliquot from percentage of apoptotic cells in the stained aliquot. After staining, cells were washed in ice-cold PBS and resuspended in 300 μL of the Annexin V buffered solution, and analysis by flow cytometry using an LSR II flow cytometer (BD Bioscience, CA). […] Mean cell numbers between the OST-01 treated and control group was statistically analyzed by using unpaired, two-tailed Student's t test, with values from at least two independent experiments with triplicate determination. […]\nRaw data obtained from these analyses were searched against a natural product databases, a flavonoid database, and other chemspider databases centered to plant natural products for putative identification. IN addition, based on the most abundant precursor ions detected in DI-MS, compounds were manually searched to assign putative identify of the abundant compounds. […]"}, "HL-60 cells": {"test_system": "HL-60 cells", "assay_type": "cell-based, human", "conditions": "HL-60, highest amount tested (50 μM)"}, "THP-1 cells": {"test_system": "THP-1 cells", "assay_type": "cell-based", "conditions": "THP-1, highest amount tested (200 μM), relative to ethanol or DMSO negative controls (FIG. 26B)"}},
  "data": [
    {"smiles": "O=C(O)CCCCCCCCCCCCCCCCCCCCO", "values": [
      {"measurement": "increase in DAPI positive cells", "setting": "MV-4-11 cells; MV-4-11, up to 30 μM, relative to ethanol negative control, decline at higher concentrations (FIG. 28A)", "result": "≥ 8", "unit": "fold"},
      {"measurement": "increase in DAPI positive cells", "setting": "HL-60 cells; relative to ethanol negative control (FIG. 28B)", "result": "over 4 fold"},
      {"measurement": "increase in Annexin V positive cells", "setting": "HL-60 cells; relative to ethanol or DMSO negative controls (FIG. 27B)", "result": "over 1.5 fold"}
    ]},
    {"smiles": "O=C(O)/C=C/CCCCCCCCCCCCCCCCCCO", "note": "[(2E)-21-Hydroxy-2-henicosenoic acid]", "values": [
      {"measurement": "increase in Annexin V positive cells", "setting": "MV-4-11 cells; MV-4-11, highest amount tested (50 μM), relative to ethanol negative control (FIG. 27A)", "result": "over 2 fold"},
      {"measurement": "increase in Annexin V positive cells", "setting": "MV-4-11 cells; MV-4-11, highest amount tested (200 μM), relative to ethanol or DMSO negative controls (FIG. 26A)", "result": "≥ 55", "unit": "%"},
      {"measurement": "increase in Annexin V positive cells", "setting": "THP-1 cells", "result": "≥ 50", "unit": "%"}
    ]}
  ]
}
